Source: patent publication US9879038B2, “Salt of tenofovir disoproxil” (JW Pharmaceutical Corporation, priority 2014, dated 2018)
Entries after “also recorded” stand apart in the source; their conditions may differ. Each block holds one compound with its values, some of them ahead of it.

Key:
Format in all cases: physicochemical
[1] = Evaluation of saturation solubility; parameters: saturation solubility: unit not given here; conditions: for solubility: thermodynamic from solid
Description: The saturation solubility of the tenofovir disoproxil hemi-edisylate of the present invention (Example 1) and the tenofovir disoproxil fumarate salt (Comparative Example 1) as a control group were evaluated.

[2] = Evaluation of stability (stressed conditions) depending on generation of related substances, HPLC (USP); conditions: for related substance generated: FIG. 1c
Description: In order to evaluate stability (stressed conditions), according to the ICH guidelines, tenofovir disoproxil edisylate of the present invention (Example 1: TDE) and tenofovir disoproxil fumarate (Comparative Example 1: TDF) as a control group were used, and analyzed using high-perfoiinance liquid chromatography (HPLC) as set forth in the U.S. Pharmacopeia (USP). The results are shown in Table 1 below (stressed conditions: 60±2° C.).
The tenofovir disoproxil hemi-edisylate of the present invention (Example 1: TDE (hemi salt)), serving as a test group, and tenofovir disoproxil mono-edisylate (Comparative Example 2: TDE (mono salt)), serving as a control group, were evaluated for stability for 3 weeks in the same manner as in (1) above.

[3] = Evaluation of stability depending on changes in pH; conditions: deionized water and pH 1.2, 4.0, 6.8 buffers, 30° C., HPLC, FIGS. 2 and 3
Description: When a drug is orally administered, it is absorbed in vivo through the stomach, duodenum, small intestine, etc. […] In the present invention, stability was measured using deionized water and three different pH buffer solutions (at pH 1.2, 4.0, and 6.8) for release testing. A test method was performed in a manner in which 5 mg of each of the tenofovir disoproxil hemi-edisylate of the present invention and the tenofovir disoproxil fumarate as a control group was accurately weighed, completely dissolved in 1 mL of a mixture of acetonitrile and water (1:19), and then added with 9 mL of each of the above pH buffer solutions. The individual samples thus prepared were placed in a chamber at 30° C. and changes in the amounts thereof over time were quantified using HPLC.

[4] = stressed conditions 60±2° C., 7 days
[5] = stressed conditions 60±2° C., 14 days
[6] = stressed conditions 60±2° C., 21 days
[7] = stressed conditions 60±2° C., Initial

Compound: 9-[(R)-2-[[bis[[(isopropoxycarbonyl)oxy]methoxy]phosphinyl]methoxy]propyl]adenine hemiedisylate [TDE]
saturation solubility ([1]; DW (Deionized Water)): 2200
saturation solubility ([1]; pH 1.2): 2680
saturation solubility ([1]; pH 4.0): 2280
saturation solubility ([1]; pH 6.8): 2400
stability under stressed conditions (in words) ([2]; stressed conditions 60±2° C., 3 weeks, versus control salt, listed as tenofovir disoproxil hemi-edisylate): very stable under stressed conditions compared to the disoproxil fumarate; also recorded: very stable under stressed conditions compared to the tenofovir disoproxil mono-edisylate
Related substances: Tenofovir disoproxil ethyl ester [2, 4]: 0.02%
Related substances: Tenofovir isopropyl isoproxil [2, 4]: 0.04%
Related substances: Tenofovir isoproxil monoester [2, 4]: 0.27%
Related substances: Tenofovir disoproxil ethyl ester [2, 5]: 0.01%
Related substances: Tenofovir isopropyl isoproxil [2, 5]: 0.04%
Related substances: Tenofovir isoproxil monoester [2, 5]: 0.30%
Related substances: Tenofovir disoproxil ethyl ester [2, 6]: 0.02%
Related substances: Tenofovir isopropyl isoproxil [2, 6]: 0.04%
Related substances: Tenofovir isoproxil monoester [2, 6]: 0.37%
Related substances: Tenofovir disoproxil ethyl ester [2, 7]: 0.01%
Related substances: Tenofovir isopropyl isoproxil [2, 7]: 0.04%
Related substances: Tenofovir isoproxil monoester [2, 7]: 0.26%
related substance generated ([2]; stressed conditions, 3rd week): 0.37
stability superior to that of tenofovir disoproxil mono-edisylate ([2]; stressed conditions, 3rd week, related substance 0.37 vs 5.62): at least 15 times
stability depending on changes in pH [3]: stability equal to that of a conventional tenofovir disoproxil fumarate product

solubility ([1]; aqueous buffer, pH 4.0): 13.2 mg/mL
solubility ([1]; pH 1.2, simulated gastric fluid): 39.2 mg/mL
solubility ([1]; pH 6.8, aqueous buffer): 9.4 mg/mL
solubility ([1]; DW (Deionized Water)): 13.5 mg/mL
Related substances: Adenine [2, 4]: 0.01%
Related substances: Tenofovir isoproxil monoester [2, 4]: 0.79%
Related substances: Unspecified impurity-1 [2, 4]: 0.01%
Related substances: Unspecified impurity-2 [2, 4]: 0.09%
Related substances: Unspecified impurity-3 [2, 4]: 0.03%
Related substances: Unspecified impurity-5 [2, 4]: 0.21%
Related substances: Adenine [2, 5]: 0.01%
Related substances: Tenofovir isoproxil monoester [2, 5]: 1.26%
Related substances: Unspecified impurity-1 [2, 5]: 0.05%
Related substances: Unspecified impurity-2 [2, 5]: 0.27%
Related substances: Unspecified impurity-3 [2, 5]: 0.04%
Related substances: Unspecified impurity-4 [2, 5]: 0.04%
Related substances: Unspecified impurity-5 [2, 5]: 0.63%
Related substances: Unspecified impurity-6 [2, 5]: 0.07%
Related substances: Unspecified impurity-7 [2, 5]: 0.42%
Related substances: Adenine [2, 6]: 0.01%
Related substances: Tenofovir isoproxil monoester [2, 6]: 1.81%
Related substances: Unspecified impurity-2 [2, 6]: 0.18%
Related substances: Unspecified impurity-3 [2, 6]: 0.03%
Related substances: Unspecified impurity-5 [2, 6]: 0.21%
Related substances: Adenine [2, 7]: 0.01%
Related substances: Tenofovir isoproxil monoester [2, 7]: 0.42%
Related substances: Unspecified impurity-2 [2, 7]: 0.03%
Related substances: Unspecified impurity-3 [2, 7]: 0.02%
Related substances: Unspecified impurity-5 [2, 7]: 0.05%
Compound: CC(C)OC(=O)OCOP(=O)(CO[C@H](C)Cn1cnc2c(N)ncnc21)OCOC(=O)OC(C)C.O=C(O)/C=C/C(=O)O [TDF, 9-[2-(R)-[[bis[[(isopropoxycarbonyl)oxy]methoxy]phosphinoyl]methoxy]propyl]adenine fumaric acid (1:1)]

related substance generated ([2]; stressed conditions, 3rd week): 5.62
Compound: CC(C)OC(=O)OCOP(=O)(COC(C)Cn1cnc2c(N)ncnc21)OCOC(=O)OC(C)C.O=S(=O)(O)CCS(=O)(=O)O (centres unmarked) [tenofovir disoproxil mono-edisylate, Tenofovir disoproxil mono-edisylate]
